Test results as given in patent US9604923B2 (H. LEE MOFFITT CANCER CENTER AND RESEARCH INSTITUTE, INC., priority 2006, dated 2017).

Legend:
STAT3 = STAT3 (Mus musculus, UniProt P42227); experiment: Inhibition of STAT3 dimerization, EMSA assay; type: binding; set-up: endogenous in cells; host or cells: nuclear extracts per the general EMSA method
Stat5:5 = experiment: STATs DNA-binding activity in vitro, EMSA with MGFe probe; set-up: species or system mouse; details: Table 4; read-out: IC50 values for the inhibition of STATs DNA-binding activity in vitro, Stat5:5
Stat1:1 = molecular target: T1, Stat1:1 (Mus musculus, UniProt P42225); experiment: STATs DNA-binding activity in vitro, EMSA; details: Table 4; read-out: IC50 values for the inhibition of STATs DNA-binding activity in vitro, Stat1:1
T1 construct: endogenous in cells; host or cells: EGF-stimulated NIH3T3/hEGFR mouse fibroblasts, nuclear extracts
T1 sequence (P42225 2-749 limits assumed): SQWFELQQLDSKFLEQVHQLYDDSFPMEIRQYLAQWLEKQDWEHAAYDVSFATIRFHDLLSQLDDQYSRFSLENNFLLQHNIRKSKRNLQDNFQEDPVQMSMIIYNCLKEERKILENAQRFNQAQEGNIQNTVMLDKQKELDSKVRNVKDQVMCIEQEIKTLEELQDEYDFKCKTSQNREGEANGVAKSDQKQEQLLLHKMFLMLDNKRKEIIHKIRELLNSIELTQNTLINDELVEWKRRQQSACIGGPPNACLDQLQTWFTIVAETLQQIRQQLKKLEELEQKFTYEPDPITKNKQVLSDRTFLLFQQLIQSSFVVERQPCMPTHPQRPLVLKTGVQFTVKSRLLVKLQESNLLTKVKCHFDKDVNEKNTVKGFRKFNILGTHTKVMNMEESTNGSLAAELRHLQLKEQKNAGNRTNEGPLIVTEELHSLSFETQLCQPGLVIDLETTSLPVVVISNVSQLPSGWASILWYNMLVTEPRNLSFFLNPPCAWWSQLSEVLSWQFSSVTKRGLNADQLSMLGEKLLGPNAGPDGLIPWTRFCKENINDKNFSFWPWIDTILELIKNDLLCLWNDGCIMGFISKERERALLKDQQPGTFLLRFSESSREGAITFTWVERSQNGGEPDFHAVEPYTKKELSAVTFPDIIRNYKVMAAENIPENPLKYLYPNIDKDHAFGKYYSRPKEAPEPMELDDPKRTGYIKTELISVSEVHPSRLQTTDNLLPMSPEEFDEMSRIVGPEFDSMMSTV

Stat1:3 = molecular target: T2, Stat1:3 (Mus musculus, UniProt P42227); experiment: STATs DNA-binding activity in vitro, EMSA with hSIE probe; details: Table 4; read-out: IC50 values for the inhibition of STATs DNA-binding activity in vitro, Stat1:3
T2 construct: endogenous in cells; host or cells: EGF-stimulated NIH3T3/hEGFR mouse fibroblasts, nuclear extracts
T2 sequence (P42227 2-770 limits assumed): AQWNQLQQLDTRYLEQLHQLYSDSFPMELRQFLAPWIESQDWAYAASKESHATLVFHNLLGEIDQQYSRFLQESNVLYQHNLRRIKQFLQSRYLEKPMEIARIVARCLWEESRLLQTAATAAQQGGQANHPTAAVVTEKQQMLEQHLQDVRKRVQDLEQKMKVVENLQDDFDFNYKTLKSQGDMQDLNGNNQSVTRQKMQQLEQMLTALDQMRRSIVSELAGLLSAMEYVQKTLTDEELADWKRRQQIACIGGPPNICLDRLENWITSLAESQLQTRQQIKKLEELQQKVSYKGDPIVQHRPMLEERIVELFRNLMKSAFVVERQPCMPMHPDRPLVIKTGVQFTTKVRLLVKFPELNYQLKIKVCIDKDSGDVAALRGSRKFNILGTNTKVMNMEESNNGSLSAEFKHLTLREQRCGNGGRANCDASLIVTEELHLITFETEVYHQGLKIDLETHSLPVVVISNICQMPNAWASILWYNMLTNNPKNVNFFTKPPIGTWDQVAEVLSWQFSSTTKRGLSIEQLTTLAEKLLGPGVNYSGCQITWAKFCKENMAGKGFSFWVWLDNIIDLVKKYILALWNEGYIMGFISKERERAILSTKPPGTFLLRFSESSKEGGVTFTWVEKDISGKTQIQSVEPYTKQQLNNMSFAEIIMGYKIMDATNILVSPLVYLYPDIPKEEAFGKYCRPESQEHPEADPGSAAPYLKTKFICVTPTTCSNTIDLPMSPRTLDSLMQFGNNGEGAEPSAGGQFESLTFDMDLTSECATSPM

Stat3:3 = molecular target: T3, Stat3:3 (Mus musculus, UniProt P42227); experiment: as above; details: for IC50: Table 4, read-out: IC50 values for the inhibition of STATs DNA-binding activity in vitro, Stat3:3; for selectivity among STAT family members, in words: nuclear extracts of EGF-stimulated NIH3T3/hEGFR
T3 construct: endogenous in cells; host or cells: NIH3T3/v-Src or EGF-stimulated NIH3T3/hEGFR mouse fibroblasts, nuclear extracts
T3 sequence (P42227 2-770 limits assumed): as above

STAT3, sequence (P42227 2-770 limits assumed): as above

## Cc1ccc(S(=O)(=O)OCC(=O)Nc2ccccc2)cc1 [Compound 6, 2-Oxo-2-(phenylamino)ethyl 4-methylbenzenesulfonate]
STAT3
  IC50: > 500 µM

## Cc1ccc(S(=O)(=O)OCC(=O)Nc2ccc(C#N)cc2)cc1 [Compound 7, 2-(4-Cyanophenylamino)-2-oxoethyl 4-methylbenzenesulfonate]
STAT3
  IC50: > 500 µM

## Cc1ccc(S(=O)(=O)OCC(=O)Nc2ccc(S(N)(=O)=O)cc2)cc1 [Compound 8, 2-Oxo-2-(4-sulfamoylphenylamino)ethyl 4-methylbenzenesulfonate]
STAT3
  IC50: > 500 µM

## Cc1ccc(S(=O)(=O)NCC(=O)Nc2ccc(C(=O)O)c(O)c2)cc1 [Compound 11]
STAT3
  IC50: > 500 µM

## O=C(COS(=O)(=O)c1ccc(-c2ccc(Cl)cc2)cc1)Nc1ccc(C(=O)O)c(O)c1 [Compound 15, 4-(2-(4′-Chlorobiphenyl-4-ylsulfonyloxy)acetamido)-2-hydroxybenzoic acid]
STAT3
  IC50: > 500 µM

## O=C(COS(=O)(=O)c1ccc(-c2ccccc2)cc1)Nc1ccc(C(=O)O)cc1 [Compound 20, 4-(2-(Biphenyl-4-ylsulfonyloxy)acetamido)benzoic acid]
STAT3
  IC50: > 500 µM

## O=C(COCc1ccccc1)Nc1ccc(C(=O)O)cc1 [Compound 22, 4-(2-(Benzyloxy)acetamido)benzoic acid]
STAT3
  IC50: > 500 µM

## O=C(COCc1ccccc1)Nc1ccc(C(=O)O)c(O)c1 [Compound 23, 4-(2-(Benzyloxy)acetamido)-2-hydroxybenzoic acid]
STAT3
  IC50: > 500 µM

## O=C(CCS(=O)(=O)c1ccccc1)Nc1ccc(C(=O)O)c(O)c1 [Compound 24, 4-(3-(Phenylsulfonyl)propanamido)-2-hydroxybenzoic acid]
STAT3
  IC50: < 500 µM

## O=C(CCS(=O)(=O)c1ccccc1)Nc1ccc(C(=O)O)cc1 [Compound 25, 4-(3-(Phenylsulfonyl)propanamido)benzoic acid]
STAT3
  IC50: < 500 µM

## O=C(CCCc1ccccc1)Nc1ccc(C(=O)O)cc1 [Compound 27, 4-(4-Phenylbutanamido)benzoic acid]
STAT3
  IC50: > 500 µM

## N#Cc1ccc(NC(=O)CNS(=O)(=O)c2ccc(-c3ccccc3)cc2)cc1 [Compound 28, 2-(Biphenyl-4-ylsulfonamido)-N-(4-cyanophenyl)acetamide]
STAT3
  IC50: > 500 µM

## O=C(CNS(=O)(=O)c1ccc(-c2ccccc2)cc1)Nc1ccc(S(=O)(=O)O)cc1 [Compound 29, 4-(2-(Biphenyl-4-ylsulfonamido)acetamido)benzenesulfonic acid]
STAT3
  IC50: > 500 µM

## NS(=O)(=O)c1ccc(NC(=O)CNS(=O)(=O)c2ccc(-c3ccccc3)cc2)cc1 [Compound 30, 2-(Biphenyl-4-ylsulfonamido)-N-(4-sulfamoylphenyl)acetamide]
STAT3
  IC50: > 500 µM

## O=C(CNS(=O)(=O)c1ccc(-c2ccc(Cl)cc2)cc1)Nc1ccc(C(=O)O)cc1 [Compound 31]
STAT3
  IC50: > 500 µM

## O=C(CNS(=O)(=O)c1ccc(-c2ccccc2)cc1)Nc1ccc(C(=O)O)cc1 [Compound 32]
STAT3
  IC50: > 500 µM

## Cc1ccc(S(=O)(=O)NCC(CC(=O)Nc2ccccc2)c2ccc(Cl)cc2)cc1 (centres unmarked) [Compound 36, 3-(4-Chlorophenyl)-4-(4-methylphenylsulfonamido)-N-phenylbutanamide]
STAT3
  IC50: < 500 µM

## CCOC(=O)c1ccc(NC(=O)CCc2ccc3ccccc3c2)cc1 [Compound 69, Ethyl 4-(3-(naphthalen-2-yl)propanamido)benzoate]
STAT3
  IC50: > 500 µM

## O=C(CCc1ccccc1)Nc1ccc(C(=O)O)cc1 [Compound 72, 4-(3-Phenylpropanamido)benzoic acid]
STAT3
  IC50: > 500 µM

## O=C(CCc1ccccc1)Nc1ccc(C(=O)O)c(O)c1 [Compound 73, 4-(3-Phenylpropanamido)-2-hydroxybenzoic acid]
STAT3
  IC50: > 500 µM

## COC(=O)c1ccc2cc(C(=O)Nc3cc(C(=O)O)ccc3O)ccc2c1 [Compound 75, 4-hydroxy-3-(6-(methoxycarbonyl)-2-naphthamido)benzoic acid]
STAT3
  IC50: < 500 µM

## O=C1C=C(Nc2ccc(S(=O)(=O)Nc3ccccn3)cc2)C(=O)C=C1Nc1ccc(S(=O)(=O)Nc2ccccn2)cc1 [NSC 11421]
Stat5:5
  IC50: 221 µM
Stat1:1
  IC50: 105 µM
Stat1:3
  IC50: 145 µM
Stat3:3
  inhibition of Stat3 DNA-binding activity, in words: notable potent inhibitors
  IC50: 80 µM

## O=C1c2ccccc2-c2ccc(N(Cc3ccc([N+](=O)[O-])cc3)Cc3ccc([N+](=O)[O-])cc3)cc21 [NSC 24056]
Stat5:5
  IC50: 235 µM
Stat1:1
  IC50: 267 µM
Stat1:3
  IC50: 256 µM
Stat3:3
  IC50: 245 µM

## C=CC1=C(C)/C(=C/c2[nH]c(Cc3[nH]c(/C=C4\NC(=O)C(C)=C4C=C)c(C)c3CCC(=O)O)c(CCC(=O)O)c2C)NC1=O [NSC 26685]
Stat5:5
  IC50: 125 µM
Stat1:1
  IC50: 95 µM
Stat1:3
  IC50: 68 µM
Stat3:3
  IC50: 85 µM

## O=C(O)c1cc(O)c(O)c(OC(=O)c2cc(O)c(O)c(O)c2CNc2ccc3cc(S(=O)(=O)O)cc(S(=O)(=O)O)c3c2)c1 [NSC 42067]
Stat5:5
  IC50: 88 µM
Stat1:1
  IC50: 197 µM
Stat1:3
  IC50: 86 µM
Stat3:3
  inhibition of Stat3 DNA-binding activity, in words: Potent inhibition
  IC50: 65 µM
  selectivity among STAT family members, in words: preferentially inhibit Stat3 and Stat5 over that of Stat1

## CC(CCC(=O)O)(c1ccc(OC(=O)Nc2ccccc2Cl)cc1)c1ccc(OC(=O)Nc2ccccc2Cl)cc1 [NSC 51926]
Stat5:5
  IC50: > 300 µM
Stat1:1
  IC50: 300 µM
Stat1:3
  IC50: 300 µM
Stat3:3
  IC50: 292 µM

## O=C(Nc1cccc(NC(=O)C(=O)O)c1)Oc1ccccc1 [NSC 71906]
Stat5:5
  IC50: 285 µM
Stat1:1
  IC50: 225 µM
Stat1:3
  IC50: 258 µM
Stat3:3
  IC50: 295 µM

## Cc1cc(N=Nc2ccc(-c3ccc(N=Nc4ccc(O)c(C(=O)O)c4)cc3)cc2)c(N)c(N=Nc2cc(C(=O)O)ccc2Cl)c1N.[Na+] [NSC 75912]
Stat5:5
  IC50: > 300 µM
Stat1:1
  IC50: 72 µM
Stat1:3
  IC50: 104 µM
Stat3:3
  inhibition of Stat3 DNA-binding activity, in words: Potent inhibition
  IC50: 160 µM
  selectivity among STAT family members, in words: preferentially inhibits Stat1 over Stat3 or Stat5

## Cc1cc(N=Nc2ccc(-c3ccc(N=Nc4ccc(O)c(C(=O)O)c4)cc3)cc2)c(N)c(N=Nc2cccc(OCC(=O)O)c2)c1N [NSC 75914]
Stat5:5
  IC50: > 300 µM
Stat1:1
  IC50: 113 µM
Stat1:3
  IC50: 263 µM
Stat3:3
  IC50: 276 µM

## O=C(OC1COC(n2c(=O)oc3cc([N+](=O)[O-])ccc32)C(OC(=O)c2ccccc2)C1OC(=O)c1ccccc1)c1ccccc1 (centres unmarked) [NSC 87849]
Stat5:5
  IC50: > 300 µM
Stat1:1
  IC50: > 300 µM
Stat1:3
  IC50: > 300 µM
Stat3:3
  IC50: > 300 µM

## CN=C(Nc1ccccn1)c1ccc(NC(=O)c2ccc(C(=O)Nc3ccc(C(=NC)Nc4ccccn4)cc3)cc2)cc1 [NSC 90438]
Stat5:5
  IC50: > 300 µM
Stat1:1
  IC50: > 300 µM
Stat1:3
  IC50: > 300 µM
Stat3:3
  IC50: > 300 µM

## CC(C)NC(=O)c1cc(NC(=O)c2ccc(C(=O)Nc3cc(C(=O)NC(C)C)cc(C4=NCCN4)c3)cc2)cc(C2=NCCN2)c1 [NSC 101595]
Stat5:5
  IC50: 288 µM
Stat1:1
  IC50: > 300 µM
Stat1:3
  IC50: > 300 µM
Stat3:3
  IC50: 275 µM

## O=C(O)c1cc(N=C2C=CC(=C(c3ccccc3)c3ccc(Nc4ccc(Cl)c(C(=O)O)c4)cc3)C=C2)ccc1Cl [NSC 117907]
Stat5:5
  IC50: > 300 µM
Stat1:1
  IC50: > 300 µM
Stat1:3
  IC50: 292 µM
Stat3:3
  IC50: 202 µM

## O=C(/C=C/c1ccccc1)NC(=S)Nc1ccc(C(=O)O)cc1 [NSC 205965]
Stat5:5
  IC50: 255 µM
Stat1:1
  IC50: 253 µM
Stat1:3
  IC50: 256 µM
Stat3:3
  IC50: 225 µM

## CCCCCCCCCCCC(=O)NC(=S)Nc1ccc(C(=O)O)cc1 [NSC 216360]
Stat5:5
  IC50: > 300 µM
Stat1:1
  IC50: > 300 µM
Stat1:3
  IC50: 290 µM
Stat3:3
  IC50: 220 µM

## CCOc1cccc2c(NCCCCCCCCNc3c4ccccc4nc4c(OCC)cccc34)c3ccccc3nc12 [NSC 263435]
Stat5:5
  IC50: 25 µM
Stat1:1
  IC50: 50 µM
Stat1:3
  IC50: 40 µM
Stat3:3
  inhibition of Stat3 DNA-binding activity, in words: notable potent inhibitors
  IC50: 25 µM

## N#Cc1cc([N+](=O)[O-])ccc1NC(=O)C(=O)Nn1c(=S)[nH]c2ccccc2c1=O [NSC 645885]
Stat5:5
  IC50: 250 µM
Stat1:1
  IC50: 205 µM
Stat1:3
  IC50: 250 µM
Stat3:3
  IC50: 245 µM

## CC(=O)NNc1nc(C)c(C(/C=C/c2cccc([N+](=O)[O-])c2)=N/NC(=S)NN)s1 [NSC 647608]
Stat5:5
  IC50: > 300 µM
Stat1:1
  IC50: > 300 µM
Stat1:3
  IC50: > 300 µM
Stat3:3
  IC50: 295 µM
